Data on one compound can be found in US9421276B2, “Clickable polyoxetane carrier for drug delivery” (VIRGINIA COMMONWEALTH UNIVERSITY, priority 2012, dated 2016).

The test system of series [1] is Human glioma U1242/luc-GFP cells. Kind of series: Cell toxicity assay (luciferase assay). Format: cell-based. To be noted: 48 h, carriers at concentrations up to 33 μM.
Description: Cell toxicity assays. Human glioma U1242/luc-GFP cells stably expressing the reporter luciferase were exposed to various CPT equivalent concentrations of polymer-CPT conjugates or polymer control samples (n=4) in a 96-well microtiter plate for 48 h followed by luciferase assay to assess survival of cells.
The conditions of series [2]: physiological pH, background statement; cited from earlier work.

Each structure is given as a SMILES string.

On to `CC[C@@]1(O)C(=O)OCc2c1cc1n(c2=O)Cc2cc3ccccc3nc2-1` [CPT, 20(S)-Camptothecin], for which the cytotoxicity entry in series [1] is “dose-dependent toxic”. The “stability of lactone form” value in series [2] is given as “rapidly transforms into the carboxylate form”.
